Like-named read-outs stand apart in the source and are kept apart here.
Legend:
[1] = molecular target: His-tagged protein corresponding to amino acids 575-869 of human Tyk2 (Homo sapiens (Human), UniProt P29597); assay: Probe displacement assay (scintillation proximity, radiolabeled probe); assay type: binding; conditions: 2.5 nM Tyk2 (575-869), 40 nM [3H] probe, 30 minutes at room temperature
Method: The probe displacement assay is conducted as follows: In a […], test compounds along with recombinantly expressed His-tagged protein corresponding to amino acids 575-869 of human Tyk2 (sequence shown below) at 2.5 nM, 40 nM ((R)—N-(1-(3-(8-methyl-5-(methylamino)-8H-imidazo[4,5-d]thiazolo[5,4-b]pyridin-2-yl)phenyl)ethyl)-2-([^3H]methylsulfonyl)benzamide) (preparation described below) and 80 μg/mL Copper His-Tag scintillation proximity assay beads (Perkin Elmer, Catalog #RPNQ0095) in 50 mM HEPES, pH 7.5, containing 100 μg/mL bovine serum albumin and 5% DMSO were incubated for 30 minutes at room temperature.
Protein Sequence of recombinant Hig-tagged Tyk2 (575-869):
The preparation of radiolabeled probe, (R)—N-(1-(3-(8-methyl-5-(methylamino)-8H-imidazo[4,5-d]thiazolo[5,4-b]pyridin-2-yl)phenyl)ethyl)-2-([^3H]methylsulfonyl)benzamide, was performed as described below.

[2] = system: IL-23 stimulated Kit225 T cells (STAT-dependent luciferase reporter); assay: Kit225 T cell assay, IL-23-stimulated STAT-dependent luciferase reporter; assay type: cell-based, human; conditions: 20 ng/mL human recombinant IL-23, 5-6 hours, read-out: IL-23 Kit225 Reporter (IC50)
Method: (§1) Kit225 T cells with a stably-integrated STAT-dependent luciferase reporter were plated in RPMI (Gibco) containing 10% heat-inactivated FBS (Gibco) and 100 U/mL PenStrep (Gibco). The cells were then stimulated with either 20 ng/mL human recombinant IL-23 or 200 U/mL human recombinant IFNα (PBL InterferonSource) for 5-6 hours. Luciferase expression was measured using the STEADY-GLO® Luciferase Assay System (Promega) according to the manufacturer's instructions. Inhibition data were calculated by comparison to no inhibitor control wells for 0% inhibition and non-stimulated control wells for 100% inhibition.

[3] = system: IFNα stimulated Kit225 T cells (STAT-dependent luciferase reporter); assay: Kit225 T cell assay, IFNα-stimulated STAT-dependent luciferase reporter; assay type: cell-based, human; conditions: 200 U/mL human recombinant IFNα, 5-6 hours, read-out: IFNα Kit225 Reporter (IC50)
Method: as §1

Chain of His-tagged protein corresponding to amino acids 575-869 of human Tyk2 (P29597 other isoform, or with tags, fused parts or gaps): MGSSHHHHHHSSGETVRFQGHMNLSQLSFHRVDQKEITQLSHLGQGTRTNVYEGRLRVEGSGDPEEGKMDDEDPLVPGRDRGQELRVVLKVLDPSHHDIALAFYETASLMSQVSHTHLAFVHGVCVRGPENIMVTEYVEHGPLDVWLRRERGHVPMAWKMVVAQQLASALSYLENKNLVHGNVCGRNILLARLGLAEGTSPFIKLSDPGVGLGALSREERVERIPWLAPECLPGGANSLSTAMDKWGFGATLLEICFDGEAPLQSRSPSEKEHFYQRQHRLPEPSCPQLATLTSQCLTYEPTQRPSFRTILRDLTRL

Row | EC50 [1] [nM] | IC50 [2] [nM] | IC50 [3] [nM] | IC50 ([2]; KIT225) [nM] | IC50 ([3]; KIT225) [nM] | Structure (SMILES)
1 | 1.89 | 8.29 | 3.77 | – | – | CNC(=O)c1nnc(Nc2cc(C)nc(COC)n2)cc1Nc1cccc(-c2ncn(C)n2)c1OC [Example 114]
2 | 1.72 | 30 | 8.59 | – | – | CNC(=O)c1nnc(Nc2ccncn2)cc1Nc1cccc(-c2ncn(C)n2)c1OC [Example 94]
3 | 5.72 | 30 | 3.67 | – | – | CNC(=O)c1nnc(Nc2cc(C)nc(C)n2)cc1Nc1cccc(-c2nc(C)n(C)n2)c1OC [Example 183]
4 | 7.22 | 20 | 20 | – | – | CNC(=O)c1nnc(Nc2ccccn2)cc1Nc1cccc(-c2nnc(C)o2)c1OC [Example 151]
5 | 6.95 | 6.59 | 4.3 | – | – | CNC(=O)c1nnc(Nc2cc(C)c(F)cn2)cc1Nc1cccc(-c2n[nH]c(C)n2)c1OC [Example 142]
6 | 7.19 | 40 | 20 | – | – | CNC(=O)c1nnc(Nc2cc(COC)ccn2)cc1Nc1ccccc1S(C)(=O)=O [Example 51]
7 | 6.57 | 40 | 20 | – | – | CNC(=O)c1nnc(Nc2ccccn2)cc1Nc1ccccc1S(C)(=O)=O [Example 16]
8 | 110 | 170 | 430 | – | – | CNC(=O)c1nnc(NC(=O)C2CC2)cc1Nc1ccccc1OC [Example 125]
9 | 1.46 | 8.49 | 3.54 | – | – | CNC(=O)c1nnc(Nc2cc(C)nc(C)n2)cc1Nc1cccc(-c2ncn(C)n2)c1OC [Example 108]
10 | – | – | – | 70 | 160 | [2H]C([2H])([2H])NC(=O)c1nnc(NC(=O)C2CC2)cc1Nc1cccc(-c2ccn(CC(C)(C)O)n2)c1OC [Example 196]
11 | – | 10 | 20 | – | – | CNC(=O)c1nnc(Nc2ccnc(C)n2)cc1Nc1cccc(-c2ncccn2)c1OC [Example 158]
12 | – | 20 | 8.59 | – | – | CNC(=O)c1nnc(Nc2ccccn2)cc1Nc1cccc(-c2ccn(C)n2)c1OC [Example 58]
13 | – | 30 | 30 | – | – | CNC(=O)c1nnc(NC(=O)C2CC2)cc1Nc1cccc(-c2cn(C)nn2)c1OC [Example 138]
14 | – | 2.64 | 2.33 | – | – | CNC(=O)c1nnc(Nc2cc(C)nc(C)n2)cc1Nc1cccc(-c2ncccn2)c1OC [Example 121]
15 | – | – | – | 120 | 60 | [2H]C([2H])([2H])NC(=O)c1nnc(NC(=O)C2CC2)cc1Nc1cccc(-c2nc(C)no2)c1OC [Example 162, 6-(cyclopropanecarboxamido)-4-((2-methoxy-3-(3-methyl-1,2,4-oxadiazol-5-yl)phenyl)amino)-N-trideuteromethylpyridazine-3-carboxamide]
16 | – | 80 | 120 | – | – | CNC(=O)c1nnc(Nc2cc(COC)nc(C)n2)cc1Nc1ccccc1S(C)(=O)=O [Example 40]
17 | – | 10 | 10 | – | – | CNC(=O)c1nnc(Nc2cc(C)ccn2)cc1Nc1ccccc1S(C)(=O)=O [Example 14]
18 | – | 20 | 30 | – | – | CNC(=O)c1nnc(NC(=O)C2CC2)cc1Nc1cccc(-c2ncc(F)cn2)c1OC [Example 116]
19 | – | 310 | 110 | – | – | CNC(=O)c1nnc(Nc2ccccn2)cc1Nc1cccc(-c2nnc(C)o2)c1SC [Example 203]
20 | – | 230 | 150 | – | – | CNC(=O)c1nnc(Nc2cc(C(C)O)ccn2)cc1Nc1cccc(-c2cscn2)c1OC (stereo not shown) [Example 157]
21 | – | 2.96 | 1.6 | – | – | CCc1cc(Nc2cc(Nc3cccc(-c4ncn(C)n4)c3OC)c(C(=O)NC)nn2)nc(C)n1 [Example 115]
22 | – | – | – | 5.45 | 6.19 | [2H]C([2H])([2H])NC(=O)c1nnc(Nc2ccccn2)cc1Nc1cccc(-c2nnc[nH]2)c1OC [Example 172]
23 | – | 50 | 130 | – | – | CNC(=O)c1nnc(Nc2ccccn2)cc1Nc1cccc(C(=O)NCC(F)(F)F)c1OC [Example 171]
24 | – | 310 | 490 | – | – | CNC(=O)c1nnc(Nc2cc(C(C)(C)O)ccn2)cc1Nc1ccccc1S(C)(=O)=O [Example 50]
25 | – | 450 | 140 | – | – | CNC(=O)c1nnc(NC(=O)C2CC2)cc1Nc1cccc(-c2ncnn2C)c1OC [Example 179]
26 | – | – | – | 80 | 30 | [2H]C([2H])([2H])NC(=O)c1nnc(NC(=O)C2CC2)cc1Nc1cccc(-c2cc(C)[nH]n2)c1OC [Example 200]

Row | EC50 [1] [nM] | IC50 [2] [nM] | IC50 [3] [nM] | IC50 ([2]; KIT225) [nM] | IC50 ([3]; KIT225) [nM] | Structure (SMILES)
27 | – | 20 | 5.15 | – | – | CNC(=O)c1nnc(Nc2ccc(F)cn2)cc1Nc1cccc(-c2cnccn2)c1OC [Example 74]
28 | – | 60 | 20 | – | – | CNC(=O)c1nnc(Nc2ccccn2)cc1Nc1cccc(-n2cccn2)c1OC [Example 65]
29 | – | 10 | 9.21 | – | – | CNC(=O)c1nnc(NC(=O)C2CC2)cc1Nc1cccc(-c2ncn(C)n2)c1OC [Example 52]
30 | – | 540 | 80 | – | – | CCOc1ccnc(Nc2cc(Nc3ccccc3S(C)(=O)=O)c(C(=O)NC)nn2)c1 [Example 37]
31 | – | 10 | 8.63 | – | – | CNC(=O)c1nnc(Nc2cc(C)nc(C)n2)cc1Nc1cccc(-c2c[nH]nn2)c1OC [Example 191]
32 | – | 210 | 40 | – | – | CNC(=O)c1nnc(Nc2cc(C(F)(F)F)ccn2)cc1Nc1ccccc1S(C)(=O)=O [Example 35]
33 | – | 100 | 70 | – | – | CNC(=O)c1nnc(NC(=O)C2CC2)cc1Nc1cccc(-c2ncn(C)n2)c1OC [Example 67]
34 | – | 330 | 110 | – | – | CNC(=O)c1nnc(Nc2cc(C(C)O)ccn2)cc1Nc1ccccc1S(C)(=O)=O (stereo not shown) [Example 48]
35 | – | 10 | 5.99 | – | – | CNC(=O)c1nnc(Nc2ccc(F)cn2)cc1Nc1cccc(-c2ncccn2)c1OC [Example 71]
36 | – | 30 | 9.16 | – | – | CNC(=O)c1nnc(Nc2cc(OC(C)C)ncn2)cc1Nc1cccc(-c2ncn(C)n2)c1OC [Example 98]
37 | – | 40 | 30 | – | – | CNC(=O)c1cccc(Nc2cc(Nc3ccccn3)nnc2C(=O)NC)c1OC [Example 169]
38 | – | 10 | 6.92 | – | – | CNC(=O)c1nnc(Nc2cc(C)nc(C)n2)cc1Nc1cccc(-c2cnn(C)n2)c1OC [Example 137]
39 | – | 460 | 70 | – | – | CNC(=O)c1nnc(Nc2cc(OC)nc(C)n2)cc1Nc1ccccc1S(C)(=O)=O [Example 43]
40 | – | – | – | 300 | 170 | [2H]C([2H])([2H])NC(=O)c1nnc(Nc2ccccn2)cc1Nc1cccc(C(=O)NCCOC)c1OC [Example 164]
41 | – | – | – | 30 | 20 | [2H]C([2H])([2H])NC(=O)c1nnc(Nc2cc(C)c(F)cn2)cc1Nc1ccccc1S(C)(=O)=O [Example 1]
42 | – | – | – | 40 | 30 | [2H]C([2H])([2H])NC(=O)c1nnc(NC(=O)C2CC2)cc1Nc1cccc(-c2c[nH]nn2)c1OC [Example 192]
43 | – | 3.83 | 1.4 | – | – | CNC(=O)c1nnc(Nc2cc(COC)ccn2)cc1Nc1cccc(-c2ncn(C)n2)c1OC [Example 135]
44 | – | 20 | 20 | – | – | CNC(=O)c1nnc(Nc2cc(C)n(C)n2)cc1Nc1cccc(-c2cscn2)c1OC [Example 131]
45 | – | 20 | 20 | – | – | CNC(=O)c1nnc(Nc2ccc(F)cn2)cc1Nc1cccc(-c2ccn(C)n2)c1OC [Example 55]
46 | – | 40 | 20 | – | – | CNC(=O)c1nnc(NC(=O)C2CC2)cc1Nc1cccc(-c2n[nH]c(C)n2)c1OC [Example 141]
47 | – | 100 | 40 | – | – | CNC(=O)c1nnc(Nc2cc(C)ccn2)cc1Nc1ccccc1S(C)(=O)=O [Example 23]
48 | – | 10 | 20 | – | – | CS(=O)(=O)c1ccccc1Nc1cc(Nc2ccccn2)nnc1C(N)=O [Example 27]
49 | – | 170 | 100 | – | – | CNC(=O)c1nnc(Nc2cc(OC)ccn2)cc1Nc1ccccc1S(C)(=O)=O [Example 38]
50 | – | 140 | 80 | – | – | CNC(=O)c1nnc(Nc2cc(C#N)ccn2)cc1Nc1ccccc1S(C)(=O)=O [Example 25]
51 | – | 190 | 230 | – | – | CNC(=O)c1nnc(Nc2ccccn2)cc1Nc1cccc(-c2ccnn2C)c1OC [Example 199]

Row | Structure (SMILES) | EC50 [1] [nM] | IC50 [2] [nM] | IC50 [3] [nM] | IC50 ([2]; KIT225) [nM] | IC50 ([3]; KIT225) [nM]
52 | CNC(=O)c1nnc(Nc2cc(C)n(C)n2)cc1Nc1ccccc1S(C)(=O)=O [Example 24] | – | 60 | 50 | – | –
53 | CS(=O)(=O)c1ccccc1Nc1cc(Nc2ccc(F)cn2)nnc1C(N)=O [Example 2] | – | 140 | 50 | – | –

From patent publication US11021475B2, “Amide-substituted heterocyclic compounds useful as modulators of IL-12, IL-23 and/or IFN alpha responses” (Bristol-Myers Squibb Company, priority 2012, dated 2021)
